Measurements published in article PMC9317327, “Functional Characterization, Antimicrobial Effects, and Potential Antibacterial Mechanisms of NpHM4, a Derived Peptide of Nautilus pompilius Hemocyanin” (Marine Drugs, 2022).
≈ marks a conversion by molar mass, not a printed value. Where a SMILES comes first, the peptide text is derived from it.

Columns and labels:
Bacillus megaterium = settings: cited from earlier work
E. coli = settings: cited from earlier work
Procedure: In order to explore the antibacterial activity of the six predicted AMPs, the minimal inhibitory concentrations (MICs) and the minimal bactericidal concentrations (MBCs) of chemically synthesized NpHN1–NpHN6 peptides were measured against Gram-negative bacteria (Vibrio alginolyticus and Escherichia coli). […] The GR ...

Staphylococcus aureus = settings: cited from earlier work
[1] = system: Staphylococcus aureus ATCC 25923; assay type: cell-based; settings: ATCC 25923, 2 h, pH 7.2
Procedure: (§1) The antimicrobial activity of the peptides was determined against Gram-negative bacteria, including V. alginolyticus (A056), E. coli (DH5α), and V. parahaemolyticus (2013V-1174), which were obtained from the South China Sea Institute of Oceanology, Chinese Academy of Sciences. The activity was also tested against the Gram-positive bacteria S. aureus ATCC 25923 and B. subtilis ATCC 6051. To assess the antimicrobial activities of the peptides, bacterial cells were cultured to the logarithmic growth phase and then diluted to 10^6–1.5 × 10^7 CFU/mL with PBS (0.01 M, pH 7.2). Equal volumes of serially diluted peptides, with concentrations ranging from 30 to 450 μM in PBS, and bacteria suspension were mixed and incubated at room temperature for 2 h, respectively. Then, 6 μL of each serially diluted mixture was plated on sterile 12-well agar plates, followed by incubation for 11 to 12 h, and the colonies were assessed to determine the MICs and MBCs. The MICs were expressed (in µM) as an [a]–[b] concentration interval, where [a] is the highest peptide concentration at which bacteria were growing and [b] is the lowest concentration that caused 100% growth inhibition. Cultures without peptides were employed as controls. All the tests were performed in triplicate and repeated three times.

Escherichia coli (DH5α) = assay type: cell-based; settings: DH5α, 2 h, pH 7.2
Procedure: as §1

[2] = system: Bacillus subtilis ATCC 6051; assay type: cell-based; settings: ATCC 6051, 2 h, pH 7.2
Procedure: as §1

[3] = system: Vibrio alginolyticus (A056); assay type: cell-based; settings: 2 h, pH 7.2
Procedure: as §1

[4] = system: Vibrio parahaemolyticus 2013V-1174; assay type: cell-based; settings: 2 h, pH 7.2
Procedure: as §1

[5] = system: Vibrio alginolyticus (A056); assay type: cell-based; settings: 2 h
[6] = system: Vibrio parahaemolyticus 2013V-1174; assay type: cell-based; settings: 2 h

Compound: GSTSFHLIYNKWFAVKRRRKR [GR21]
- MBC (Bacillus megaterium): below 25 μM
- MBC (E. coli): below 25 μM
- MBC (Staphylococcus aureus): below 25 μM

Compound: CC[C@H](C)[C@H](NC(=O)CNC(=O)[C@H](Cc1c[nH]cn1)NC(=O)[C@H](CCCNC(=N)N)NC(=O)[C@H](CC(C)C)NC(=O)[C@H](Cc1ccccc1)NC(=O)CNC(=O)[C@H](C)NC(=O)[C@H](Cc1ccccc1)NC(=O)[C@@H](NC(=O)[C@@H](N)CCCNC(=N)N)C(C)C)C(=O)N[C@@H](CCCCN)C(=O)N[C@@H](CCCNC(=N)N)C(=O)N[C@@H](CO)C(=O)N[C@@H](CCCNC(=N)N)C(=O)O [NpHM4] (H-RVFAGFLRHGIKRSR-OH)
- MBC [1]: >50 µM
- MIC [1]: >50 µM
- MBC (Escherichia coli (DH5α)): >150 µM
- MIC (Escherichia coli (DH5α)): 50 to 150 µM
- MBC [2]: >50 µM
- MIC [2]: >50 µM
- MBC [3]: 30 µM (≈ 54 µg/mL)
- MIC [3]: 5 to 25 µM
- MBC [4]: 50 µM (≈ 90 µg/mL)
- MIC [4]: 15 to 45 µM
- IC50 [5]: 12.2 µM
- IC50 [6]: 32.1 µM

Compound: CC[C@H](C)[C@H](NC(=O)CNC(=O)[C@H](Cc1c[nH]cn1)NC(=O)[C@H](CCCNC(=N)N)NC(=O)[C@H](CC(C)C)NC(=O)[C@H](Cc1ccccc1)NC(=O)CNC(=O)[C@H](C)NC(=O)[C@H](Cc1ccccc1)NC(=O)[C@@H](NC(=O)[C@@H](N)CCCNC(=N)N)C(C)C)C(=O)N[C@@H](CCCCN)C(=O)N[C@@H](CCCNC(=N)N)C(=O)N[C@@H](CO)C(=O)N[C@@H](C)C(=O)O [NpHM1] (H-RVFAGFLRHGIKRSA-OH)
- MBC [1]: >60 µM
- MIC [1]: >60 µM
- MBC (Escherichia coli (DH5α)): >60 µM
- MIC (Escherichia coli (DH5α)): 15 to 60 µM
- MBC [2]: >60 µM
- MIC [2]: >60 µM
- MBC [3]: >150 µM
- MIC [3]: 50 to 150 µM
- MBC [4]: >60 µM
- MIC [4]: 15 to 60 µM
